The values below come from patent US20220267347A1, “SUBSTITUTED PYRIMIDINEDIONE COMPOUNDS AND USES THEREOF” (SUNSHINE LAKE PHARMA CO., LTD., priority 2019, published 2022).

The target in one data set is T1, humanized GnRH receptor (Homo sapiens, UniProt P30968).
T1 construct: expressed in transfected cells; host or cells: RBL-1 cells (Rat Basophilic Leukemia)
T1 sequence (P30968 1-328): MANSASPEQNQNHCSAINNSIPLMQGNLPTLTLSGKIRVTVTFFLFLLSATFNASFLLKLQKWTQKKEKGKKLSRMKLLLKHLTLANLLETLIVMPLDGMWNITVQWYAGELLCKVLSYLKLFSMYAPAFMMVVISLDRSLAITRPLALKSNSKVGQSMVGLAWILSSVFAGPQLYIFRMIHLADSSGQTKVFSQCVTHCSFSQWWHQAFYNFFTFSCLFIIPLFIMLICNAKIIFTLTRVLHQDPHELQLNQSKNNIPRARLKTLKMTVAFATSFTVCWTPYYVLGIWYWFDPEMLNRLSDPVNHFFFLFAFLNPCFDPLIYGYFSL
In words: Antagonism on humanized GnRH receptor transfected in RBL-1 cells, fluorescence detection of cytoplasmic calcium flow. The following applies: RBL-1 cells transfected with humanized GnRH receptor, 8 nM LH-RH. Format: cell-based. The procedure:
The antagonism of the compound on humanized GnRH receptor transfected in RBL-1 cells (Rat Basophilic Leukemia) was evaluated by a fluorescence method for detecting the cytoplasmic calcium flow.
The cells were suspended in HBSS buffer (Invitrogen, USA), 20 mM HEPES buffer (Invitrogen, USA) was added, and then the cells were added at an average density of 1.186×10^4 cells/well into a microwell reaction plate. Fluorescent probe (Fluo8 Direct, AAT Bioquest) was mixed with HBSS buffer (adding 20 mM HEPES buffer, pH=7.4), and the mixture was added into each well and the cells were incubated at 30° C. for 60 min. Then the reaction plate was placed in a microplate reader (FlipR Tetra, Molecular Device) for testing, the test compound or HBSS buffer (blank control) was added, after 5 min, 8 nM LH-RH was added, and the changes of the fluorescence intensity which is proportional to intracellular calcium ion concentration were measured. The fluorescence intensity of the blank control group without adding the compound was taken as 100% (inhibition rate was 0%), and the inhibition rate of the compound was calculated. The IC50 value was calculated by measuring the inhibition rate of the compound at different concentrations.

The nature of data set [1]: Pharmacokinetic evaluation after intravenous or gavage administration to rats. As to conditions: for AUC(0-inf) / AUC(0-t) / Cmax / MRT inf / Tmax / clearance / half-life: Sprague-Dawley (SD), rat, plasma. It counts as in vivo, SD rats. The procedure:
(§1) The pharmacokinetics of the compound of the invention in rats and/or dogs were evaluated herein, the animal information was listed in Table B.
(§2) The compound of the present invention was administered to the animal subjects in the form of 10% DMSO+10% Kolliphor HS15+78% Saline+2% (2% HCl) solution or 78% Saline+2% (2% HCl)+20% PEG400 solution. Before administration, the animals were fasted for 12 hours but water was freely allowed. In the IV group, the dose was 1 mg/kg (Rats) or 0.5 mg/kg (dogs), blood samples were taken from vein at the following time points after administration (blood volume was about 0.2 mL): 0.083, 0.25, 0.5, 1.0, 2.0, 4.0, 6.0, 8.0 and 24 h (dogs) or 0.083, 0.25, 0.5, 1.0, 2.0, 5.0, 7.0 and 24 h (Rats), EDTA-K2 was pre-added to the blood vessels as an anticoagulant. In the gavage group, the dose was 5 mg/kg (Rats) or 2.5 mg/kg (dogs), blood samples were taken from vein at the following time points after administration (blood volume was about 0.2 mL): 0.25, 0.5, 1.0, 2.0, 4.0, 6.0, 8.0 and 24 h (dogs) or 0.25, 0.5, 1.0, 2.0, 5.0, 7.0 and 24 h (Rats), EDTA-K2 was pre-added to the blood vessels as an anticoagulant. The blood samples were centrifuged at […] for 2 minutes. The plasma was collected and kept at −20° C. or −70° C.
(§3) The above collected plasma samples were processed (after thawing of frozen plasma at room temperature, the thawed plasma was vortexed for 15 s; 10-20 μL of plasma was taken and 120-150 μL of acetonitrile solution containing internal standard was added to the plasma; the mixture was vortexed for 5 min amd centrifuged for 5 min at 4,000 rpm; 100 μL of supernatant was taken and 120-150 μL of methanol/water (v/v=1/1) was added to the suspernatant, and mixing), and then LC/MS/MS was used to analyze the concentration of the compound in plasma, and […] was used to calculate the pharmacokinetic parameters.

Data set [2] can be described thus: Pharmacokinetic evaluation after intravenous or gavage administration to dogs. Format: in vivo, Beagle dogs. The following applies: 2.5 mg/kg; for AUC(0-inf) / AUC(0-t) / Cmax / MRT inf / Tmax / half-life: beagle, dog, plasma, intravenous, i.v group; for F: gavage group. The procedure: as §1
as §2, with “In the gavage group, the dose was 5 mg/kg (Rats) or 2.5 mg/kg (dogs), blood samples were taken from vein at the following time points after administration (blood volume was about 0.2 mL): 0.25, 0.5, 1.0, 2.0, 4.0, 6.0, 8.0 and 24 h (dogs) or 0.25, 0.5, 1.0, 2.0, 5.0, 7.0 and 24 h (Rats), EDTA-K2 was pre-added to the blood vessels as an anticoagulant.” left out
as §3

pIC50: −log10 of the molar value.

Turning to `CONC(=O)Nc1ccc(-c2sc3c(c2CN(C)C)c(=O)n(-c2cccc(-n4cccn4)n2)c(=O)n3Cc2c(F)cccc2F)cc1` [Example 5, 1-(4-(3-(6-(1H-pyrazol-1-yl)pyrid-2-yl)-1-(2,6-difluorobenzyl)-5-((dimethylamino)methyl)-2,4-dioxo-1,2,3,4-tetrahydrothieno[2,3-d]pyrimidin-6-yl)phenyl)-3-methoxyurea], at humanized GnRH receptor, the pIC50 – broadly, the IC50 on a negative log10 scale, so that one unit is a factor of ten – is 8.39.

`CONC(=O)Nc1ccc(-c2sc3c(c2CN(C)C)c(=O)n(-c2ccc(-n4cccn4)nc2)c(=O)n3Cc2c(F)cccc2F)cc1` [Example 3, 1-(4-(3-(6-(1H-pyrazol-1-yl)pyrid-3-yl)-1-(2,6-difluorobenzyl)-5-((dimethylamino)methyl)-2,4-dioxo-1,2,3,4-tetrahydrothieno[2,3-d]pyrimidin-6-yl)phenyl)-3-methoxyurea]: on humanized GnRH receptor, the pIC50 is 8.74. Moreover, in data set [1] (iv, i.v group, 1 mg/kg), the AUC(0-inf) – broadly, total exposure, with the tail of the curve extrapolated – stood at 184 ng·h/mL; the AUC(0-t) – broadly, exposure summed from dosing to a finite time, without extrapolation to infinity – was 179 ng·h/mL; the Cmax (as a rule, the peak of the concentration-time curve) came out at 151 ng/mL; the MRT inf – broadly, a mean duration of stay, worked out from the concentration-time curve – was 4.58 h. Also, in data set [1] (iv, i.v group, 1 mg/kg), the Tmax (as a rule, the time from dosing to the highest level) was 0.083 h; the clearance stood at 90.7 mL/min/kg; the half-life (in general, the time needed for the level to fall by half in the phase considered) was 2.13 h. For the same compound, in data set [1] (po, i.g group, 5 mg/kg), the AUC(0-inf) stood at 1750 ng·h/mL, the AUC(0-t) worked out at 1710 ng·h/mL, the concentration peaked (Cmax) at 164 ng/mL and the MRT inf worked out at 6.4 h. In data set [1] (po, i.g group, 5 mg/kg), the Tmax came out at 2.33 h and the half-life is 4.43 h. Besides, in data set [1] (i.g group, 5 mg/kg), the F was 190.6%. In data set [2], this compound came in with an AUC(0-inf) of 11800 ng·h/mL, an AUC(0-t) of 9490 ng·h/mL, a Cmax of 671 ng/mL and an MRT inf of 13.2 h. In addition, in data set [2], the Tmax came out at 1.67 h, the half-life is 9.44 h and the F was 140.3%.

Regarding `CONC(=O)Nc1ccc(-c2sc3c(c2CN(C)C)c(=O)n(-c2ccc(-n4nccn4)cn2)c(=O)n3Cc2c(F)cccc2F)cc1` [Example 2, 1-(4-(3-(5-(2H-1,2,3-triazol-2-yl)pyrid-2-yl)-1-(2,6-difluorobenzyl)-5-((dimethylamino)methyl)-2,4-dioxo-1,2,3,4-tetrahydrothieno[2,3-d]pyrimidin-6-yl)phenyl)-3-methoxyurea], on humanized GnRH receptor, the pIC50 is 8.52. In data set [1] (iv, i.v group, 1 mg/kg), this compound had an AUC(0-inf) of 266 ng·h/mL, an AUC(0-t) of 261 ng·h/mL, a Cmax of 352 ng/mL and an MRT inf of 1.22 h. Moreover, in data set [1] (iv, i.v group, 1 mg/kg), the Tmax was 0.083 h, the clearance stood at 62.7 mL/min/kg and the half-life is 1.33 h. Also, in data set [1] (po, i.g group, 5 mg/kg), the AUC(0-inf) amounted to 529 ng·h/mL, the AUC(0-t) stood at 519 ng·h/mL, the peak level (Cmax) was 177 ng/mL and the MRT inf was 2.48 h. In data set [1] (po, i.g group, 5 mg/kg), the Tmax is 0.667 h and the half-life is 1.91 h. The compound further had a F in data set [1] (i.g group, 5 mg/kg) of 39.8%. In data set [2], the AUC(0-inf) came to 4290 ng·h/mL, the AUC(0-t) came to 4130 ng·h/mL, the Cmax turned out to be 720 ng/mL and the MRT inf is 5.59 h. For the same compound, in data set [2], the Tmax is 1.33 h, the half-life was 4.41 h and the F came to 133%.

With `CONC(=O)Nc1ccc(-c2sc3c(c2CN(C)C)c(=O)n(-c2ccc(-n4cccn4)nn2)c(=O)n3Cc2c(F)cccc2F)cc1` [Example 12, 1-(4-(3-(6-(1H-pyrazol-1-yl)pyridazin-3-yl)-1-(2,6-difluorobenzyl)-5-((dimethylamino)methyl)-2,4-dioxo-1,2,3,4-tetrahydrothieno[2,3-d]pyrimidin-6-yl)phenyl)-3-methoxyurea], at humanized GnRH receptor, the pIC50 is 8.50.

For `CONC(=O)Nc1ccc(-c2sc3c(c2CN(C)C)c(=O)n(-c2ccc(-n4nccn4)nc2)c(=O)n3Cc2c(F)cccc2F)cc1` [Example 4, 1-(4-(3-(6-(2H-1,2,3-triazol-2-yl)pyrid-3-yl)-1-(2,6-difluorobenzyl)-5-((dimethylamino)methyl)-2,4-dioxo-1,2,3,4-tetrahydrothieno[2,3-d]pyrimidin-6-yl)phenyl)-3-methoxyurea], the pIC50 on humanized GnRH receptor was 8.65.
